Results published in patent US12390459B2, “Methods for solid tumor treatment” (CRITITECH, INC., priority 2016, dated 2025).
Read-outs that look alike come from different tables or passages of the source.

Columns and labels:
[1] = Docetaxel dissolution study, USP Apparatus II (Paddle); assay type: physicochemical; details: for Docetaxel Dissolution: methanol/water 15/85, 37° C., pH 7
Experimental: At 5, 15, 30, 60, 120 and 225 minutes, a 5 mL aliquot was removed, filtered through a 0.22 μm filter, and analyzed on a UV/VIS spectrophotometer at 232 nm. Absorbance values of the samples were compared to those of standard solutions prepared in dissolution media to determine the amount of material dissolved.

[2] = Particle size analysis (light obscuration and laser diffraction); assay type: physicochemical
Experimental: Particle size was analyzed by both light obscuration and laser diffraction methods. An Particle Sizing Systems AccuSizer 780 SIS system was used for the light obscuration method and Shimadzu SALD-7101 was used for the laser diffraction method.
The vials were vortexed for approximately 10 seconds and then sonicated in a sonic bath approximately 1 minute.
The vial was vortexed for approximately 10 seconds and then sonicated in a sonic bath for approximately 2 minutes. This suspension was used for laser diffraction analysis. Unused suspension was poured into a 125 mL particle-free plastic bottle, which was then filled to approximately 100 mL with filtered dispersant. The suspension was vortex for approximately 10 seconds and then sonicated in the sonic bath for approximately 2 minutes. This diluted suspension was used for light obscuration analysis.
A background test was first performed prior to analyzing particles on the AccuSizer 780 SIS. A new particle-free plastic bottle was filled with blank suspension solution by pumping from a reservoir, using a peristaltic pump, through a 0.22 μm Millipore filter and into the bottle. A background analysis was run to ensure the particle/mL count was below 100 particles/mL. […] Once the analysis was completed, the background data was removed and any measurement with less than four counts was removed.
To analyze particles on SALD-7101 using a batch cell, the analysis was started by choosing Manual Measurement. The refractive index was set as 1.5 to 1.7. The batch cell was filled with filtered dispersant just past the etched line. The blank measurement was ran. […] The measurements were executed, and the resulting graph with the highest level of confidence was selected; background was automatically accounted for.

[3] = Paclitaxel dissolution study, USP Apparatus II (Paddle); assay type: physicochemical; details: methanol/water 50/50 (v/v), 37° C., pH 7, 75 rpm
Experimental: Beads were transferred to a stainless steel mesh container and placed in the dissolution bath containing methanol/water 50/50 (v/v) media at 37° C., pH 7, and a USP Apparatus II (Paddle), operating at 75 rpm. At 10, 20, 30, 60, and 90 minutes, a 5 mL aliquot was removed, filtered through a 0.22 μm filter and analyzed on a U(V/V)is spectrophotometer at 227 nm. Absorbance values of the samples were compared to those of standard solutions prepared in dissolution media to determine the amount of material dissolved.

[4] = BET surface area analysis; assay type: physicochemical
Experimental: As used herein, the “specific surface area” is the total surface area of the taxane particle per unit of taxane mass as measured by the Brunauer-Emmett-Teller (“BET”) isotherm (i.e.: the BET SSA). As will be understood by those of skill in the art, the “taxane particles” can include both agglomerated taxane particles and non-agglomerated taxane particles; since the SSA is determined on a per gram basis it takes into account both agglomerated and non-agglomerated taxane particles in the composition. The BET specific surface area test procedure is a compendial method included in both the United States Pharmaceopeia and the European Pharmaceopeia.
A known mass between 200 and 300 mg of the analyte was added to a 30 mL sample tube. […] The automated test was then carried out using the BETWIN® software package and the surface area of each sample was subsequently calculated.

[5] = system: MDA-MB-231 human breast cancer xenografts; details: for complete tumor regressions (animals): 30 mg/kg IV qwk×3; for animal deaths: 30 mg/kg IV qwk×3, 10 mice; for mean tumor weight: 30 mg/kg IV qwk×3, Day 29; for inhibition of growth of the xenografts: 30 mg/kg IV qwk×3, Day 29 vs vehicle; for % difference at nadir of response: 30 mg/kg IV qwk×3, Day 33; for tumor-free animals at the end of the study: 30 mg/kg IV qwk×3, Day 61; for tumor-free animals: IV treated group, Day 49
Text: Study Design: A total of 88 female NCr-nu/nu mice were implanted with MDA-MB-231 breast tumor fragments from an in vivo passage subcutaneously (SC) on the right flank. The day of tumor cell implantation (Aug. 4, 2016) was designated as Day 0.
The NanoPac™ and NanoDoce™ are suspensions. Prior to filling each syringe and between the injections of each animal, the test article was gently swirled/inverted. Intratumoral administration of the test material entailed the use of six needle tracks per tumor (27 G ½ inch needle). One sixth of the dose volume was injected as a slow bolus in each track, with ˜15 seconds pause before removing the needle slowly, and moving to the next injection site spaced over the surface of the tumor. The animals were observed once daily for mortality and moribundity. The mice were weighed and the tumor measurements were taken twice weekly starting on the first day of treatment. Length and width were measured for each tumor. Tumor volume was determined using the formula for an ellipsoid sphere: Length×Width^2/2=Volume(mm^3)
This formula was also used to calculate tumor weight, assuming unity density (1 mm^3=1 mg). Limit of tumor detection was 32 mg (4×4 mm). The experiment lasted for 61 days from the day of tumor implant. Animals whose weight decreased more than 30% from the weight on the first day of treatment or whose tumor reached 4,000 mg in weight, ulcerated, or sloughed off was euthanized prior to study termination.

[6] = system: MX-1 human breast cancer xenografts; details: for animal deaths / animals euthanized: 30 mg/kg IV qwk×3, 10 mice; for inhibition of growth of the xenografts: 30 mg/kg IV qwk×3 vs vehicle
Text: Tumor model: A total of 88 female NCr-nu/nu mice were implanted with MX-1 breast tumor fragments from an in vivo passage subcutaneously (SC) on the right flank. The day of tumor cell implantation was designated as Day 0.
The NanoPac™ and NanoDoce™ are suspensions. Prior to filling each syringe and between the injections of each animal, the test article was gently swirled/inverted. Animals were observed once daily for mortality and moribundity. Adverse signs were documented by exception only. Body weights were collected twice weekly beginning on SD. Tumor measurements were taken twice weekly beginning on SD, using a digital caliper. Length and width were measured for each tumor. Tumor volume was determined using the formula for an ellipsoid sphere: Length×Width 2/2=Volume (mm^3). This formula was also used to calculate tumor weight, assuming unity density (1 mm^3=1 mg). Limit of tumor detection is 32 mg (4×4 mm). The experiment lasted for 63 days from the day of tumor implant. Animals whose weight decreased more than 30% from the weight on the first day of treatment or whose tumor reached 4,000 mg in weight, ulcerated, or sloughed off was euthanized prior to study termination.

[7] = system: JIMT-1 human breast cancer xenografts; test: JIMT-1 human breast cancer xenograft study; assay type: in vivo, CB.17 SCID mice; details: 30 mg/kg iv qwk×3
Experimental: Test articles were as follows:
Adjust volume accordingly for body weight. […] Animals were monitored individually. […] When the endpoint is reached, the animals were euthanized.
Tumor growth inhibition was evaluated on D29 (the last day of dosing for animals receiving 5 admins, G1, 3, 4) at 1000 mm^3 and the study ended on D50 with a revised tumor volume endpoint of 600 mm^3 for overall survival analysis.

[8] = Paclitaxel concentration in JIMT-1 tumor tissue (LC/MS/MS); assay type: in vivo, CB.17 SCID mice; details: Group 5: 30 mg/kg, IV, qwk × 3; day 50, 35 days after last dose; individual animals
Experimental: The timing of the analysis for each group relative to the last day of drug administration is as follows: • 21 days after last dose for groups 1, 3 and 4; • 49 days for group 2; and • 35 days for group 5.
Tissue processing was carried out as follows: • 1. Control tumor tissue and tumor tissue samples were weighed and three volumes of water were added to each to yield samples with a dilution factor of 4. • 2. Tumor tissues were homogenized with a homogenizer FastPrep®-24 using a speed of 4.0 m/sec for 100 sec. • 3. 50 μL of control tumor tissue homogenate was added to separate wells of a 96 well plate for STDs, QC samples and blanks. • 4. To the control tumor tissue homogenates, 50 μL of the appropriate solution was added for STDs and QC samples (50 μL of diluent was added for blanks) • 5. For tumor tissue homogenate study samples, 50 μL of each sample was added to separate well of the 96-well plate and 50 μL aliquot of diluent was added to each tissue sample. • 6. To all samples, 200 μL of internal standard (200 ng/mL Warfarin) solution in ACN was added. • 7. The plate was vortexed vigorously for 10 minutes and then centrifuged for 10 minutes at 4000 rpm (Sorvall Legend X1R centrifuge, Thermo Scientific) at 15° C. • 8. After centrifugation, 100 μL aliquots of supernatant were transferred to a new 96-well plate containing 100 μL of water in each well. • 9. […]

[9] = system: PC-3 human prostate carcinoma; test: PC-3 prostate carcinoma xenograft, Study P-PPr-01-2015; assay type: in vivo, nude mouse; details: IV 30 mg/kg qwk×3
Experimental: Tumors were measured twice per week. Partial treatment outcome was based on percent tumor growth inhibition (% TGI), defined as the percent difference between the Day 32 median tumor volumes of treated and vehicle-control mice.

SMILES: CC(=O)O[C@@]12CO[C@@H]1C[C@H](O)[C@@]1(C)C(=O)[C@H](O)C3=C(C)[C@@H](OC(=O)[C@H](O)[C@@H](NC(=O)OC(C)(C)C)c4ccccc4)C[C@@](O)([C@@H](OC(=O)c4ccccc4)[C@H]21)C3(C)C [Docetaxel Raw Material, docetaxel]
- Docetaxel Dissolution ([1]; 0 minutes): 0.0%
- Docetaxel Dissolution ([1]; 5 minutes): 3.2%
- Docetaxel Dissolution ([1]; 15 minutes): 6.9%
- Docetaxel Dissolution ([1]; 30 minutes): 11.2%
- Docetaxel Dissolution ([1]; 60 minutes): 16.4%
- Docetaxel Dissolution ([1]; 120 minutes): 22.4%
- Docetaxel Dissolution ([1]; 225 minutes): 26.8%
- Dissolution (30 min) ([1]; methanol/water 15/85 (v/v), 37° C., pH 7, 75 rpm): 11%
- Number Mean [2]: 1.58 um
- Volume Mean [2]: 5.05 um

SMILES: CC(=O)O[C@H]1C(=O)[C@@]2(C)[C@H]([C@H](OC(=O)c3ccccc3)[C@]3(O)C[C@H](OC(=O)[C@H](O)[C@@H](NC(=O)c4ccccc4)c4ccccc4)C(C)=C1C3(C)C)[C@]1(OC(C)=O)CO[C@@H]1C[C@@H]2O [Paclitaxel Raw Material, paclitaxel]
- Dissolution (30 min) [3]: 18%
- Surface Area ([4]; BET): 10.4 m^2/g
- BET surface area ([4]; Example 1): 7.25 m^2/g
- Number Mean [2]: 1.16 um

SMILES: CC(=O)O[C@@]12CO[C@@H]1C[C@H](O)[C@@]1(C)C(=O)[C@H](O)C3=C(C)[C@@H](OC(=O)[C@H](O)[C@@H](NC(=O)OC(C)(C)C)c4ccccc4)C[C@@](O)([C@@H](OC(=O)c4ccccc4)[C@H]21)C3(C)C [docetaxel]
- complete tumor regressions (animals) [5]: 10
- animal deaths [5]: no animal deaths
- mean tumor weight [5]: 16 mg
- inhibition of growth of the xenografts [5]: significantly inhibited the growth
- % difference at nadir of response [5]: −99.8%
- mean tumor volume ([5]; 30 mg/kg IV qwk×3, Day 40): 0
- tumor-free animals at the end of the study [5]: 10
- tumor-free animals [5]: ten
- animal deaths / animals euthanized [6]: two animals euthanized for body weight loss >30%
- mean tumor weight ([6]; 30 mg/kg IV qwk×3, Day 28): 0.9 mg
- animals with completely regressed tumors ([6]; 30 mg/kg IV qwk×3, Day 31): nine
- surviving animals tumor-free at the end of the study ([6]; 30 mg/kg IV qwk×3, Day 63): eight
- inhibition of growth of the xenografts [6]: significantly inhibited the growth

SMILES: CC(=O)O[C@H]1C(=O)[C@@]2(C)[C@H]([C@H](OC(=O)c3ccccc3)[C@]3(O)C[C@H](OC(=O)[C@H](O)[C@@H](NC(=O)c4ccccc4)c4ccccc4)C(C)=C1C3(C)C)[C@]1(OC(C)=O)CO[C@@H]1C[C@@H]2O [paclitaxel]
- TGI [7]: significant TGI
- survival extension [7]: significantly improved survival extension
- Paclitaxel Concentration in tumor tissue [8]: BQL < 1 ng/g
- complete tumor regressions (animals) [5]: six
- animal deaths [5]: without animal deaths
- mean tumor weight [5]: 118 mg
- inhibition of growth of the xenografts [5]: significantly inhibited the growth
- % difference at nadir of response [5]: −97.4%
- tumor-free animals at the end of the study [5]: three
- tumor-free animals [5]: three
- animal deaths / animals euthanized [6]: without animal deaths
- mean tumor weight ([6]; 30 mg/kg IV qwk×3, Day 24): 309 mg
- % difference at nadir of response ([6]; 30 mg/kg IV qwk×3, Day 31): −86.0%
- inhibition of growth of the xenografts [6]: significantly inhibited the growth
- TGI [9]: significant TGI
- survival extension [9]: significantly improved survival extension
